Values belong to the compound of their own block, whether it stands above or below them.
Experiments:
P2Y6 receptor = target: T1, P2Y6 receptor (Homo sapiens, UniProt Q15077); assay: Activation of P2Y6 receptor: receptor induced Ca2+ changes with fluo-4 in 1321N1 astrocytoma cells; type: cell-based
T1 construct: expressed in transfected cells; host or cells: 1321N1 human astrocytoma cell line
Protocol: Synthetic ligands were tested for activation of P2Y6 receptor by measuring receptor induced Ca^2+ changes with the fluorescent Ca^2+ indicator fluo-4. 1321N1 human astrocytoma cell lines either expressing P2Y2, P2Y4 or P2Y6 receptors were plated into 24-well plates. Two days after plating, fluorometric measurements were made and responses of cells to a serial dilution of ligands were determined P2Y6 receptor-mediated Ca^2+ fluorescent change was determined by normalized accumulation of fluorescent change of 3 timepoints after ligand administration subtracted by value from ACSF control. Changes in fluorescent intensity were plotted corresponding to ligand concention in GraphPad. Dose-response curve and EC50 for each ligand was estimated using nonlinear curve fit and Sigmoidal dose-response analysis. […] The sodium salt of compound 5 was only effective at elevating Ca^2+ levels when applied to cells expressing P2Y6 receptors and not effective in P2Y2, or P2Y4 receptor expressing cells. The ability of the sodium salt of compound 5 to elevate Ca^2+ signals in P2Y6 expressing cells was attenuated by addition of the P2Y6 receptor antagonist MRS2578.
(§1) Synthetic ligands were tested for activation of P2Y6 receptor by measuring receptor induced Ca^2+ changes with the fluorescent Ca^2+ indicator fluo-4, and results are shown in FIG. 10(A)-(K). 1321N1 human astrocytoma cell lines either expressing P2Y2, P2Y4 or P2Y6 receptors were plated into 24-well plates. Two days after plating, fluorometric measurements were made and responses of cells to a serial dilution of ligands were determined P2Y6 receptor-mediated Ca^2+ fluorescent change was determined by normalized accumulation of fluorescent change of 3 timepoints after ligand administration subtracted by value from ACSF control. Changes in fluorescent intensity were plotted corresponding to ligand concentration in GraphPad. Dose-response curve and EC50 for each ligand was estimated using nonlinear curve fit and Sigmoidal dose-response analysis. […]

PSAPP mice [1] = assay: Contextual fear conditioning test (freezing behavior); type: in vivo, mouse
Protocol: On day one, animals were trained in a fear conditioning apparatus for a total of 7 minutes with a two-pairing paradigm of cue and mild foot shock (a 30-s acoustic-conditioned stimulus, 80 dB; a 2-s shock stimulus, 0.5 mA). To evaluate contextual fear learning, the animals were returned to the training context 24 hours post-training, and freezing behavior was scored for 5 minutes. Freezing behavior was monitored by MotorMonitor (Hamilton Kinder) and scored every 5 seconds.
In this study, the fear conditioning associative learning paradigm was used as a rapid cognition assay for PSAPP mice. This study allowed us to probe cognitive function with a single training day followed in 24 hours by tests for contextual and cued fear learning. Contextual fear learning is dependent upon a brain area that has been implicated as a locus for cognitive decline in AD: the hippocampus. Two pairings of CS-US for fear conditioning were followed 24 hours later by testing for contextual and cued fear learning. Previous studies have reported that PSAPP animals appear to have a selective hippocampus-dependent impairment in associative learning following two pairings of conditioned stimuli for fear conditioning.
This represents a decrease in the cognitive impairment observed in the untreated mice.

P2Y2 receptor = target: T2, P2Y2 receptor (Homo sapiens, UniProt P41231); assay: Ca2+ mobilization (fluo-4) in 1321N1 astrocytoma cells expressing P2Y2 receptor; type: cell-based; conditions: sodium salt; 1321N1 cells expressing P2Y2
T2 construct: expressed in transfected cells; host or cells: 1321N1 human astrocytoma cell line
Protocol: as §1, with “fluo-4.” for “fluo-4, and results are shown in FIG. 10(A)-(K).”, “concention” for “concentration”
(§2) Synthetic ligands were tested for activation of P2Y6 receptor by measuring receptor induced Ca^2+ changes with the fluorescent Ca^2+ indicator fluo-4, and results are shown in FIG. 10(A)-(K). […] Two days after plating, fluorometric measurements were made and responses of cells to a serial dilution of ligands were determined P2Y6 receptor-mediated Ca^2+ fluorescent change was determined by normalized accumulation of fluorescent change of 3 timepoints after ligand administration subtracted by value from ACSF control. […]

wildtype mice = assay: Plasma cytokine levels in wildtype mice; type: in vivo, mouse; conditions: wildtype animals, 1 ug/kg i.p. daily x7
Protocol: (§3) Inflammatory cytokines were assessed in mouse plasma of both wild type and PS1/APP mice (Alzheimer's mouse model) and the impact of intraperitoneal delivery of compound 5 on circulating cytokines was assessed. Seven daily intraperitoneal injections of 1 ug/kg of compound 5 were delivered to mice. 24 hours following the final injection, plasma was collected. Wildtype, age matched littermates and PSAPP mice (>6 months of age) were treated either with vehicle (phosphate buffered saline) or vehicle containing compound.

PSAPP mice [2] = assay: Postmortem immunohistochemistry of plaque load in cortex and hippocampus; type: in vivo, mouse
Text: (§4) Heterozygous mutant (K670N/M671L) APP (50% C57B6, 50% SJL) transgenic mice were crossed with heterozygous mutant (A246E) PS-1 (50% C57B6, 50% SJL) transgenic mice to generate heterozygous PSAPP transgenic mice (also referred to as PS-1/APP or PSAPP+/+ mice), which refers to animals heterozygous for the PS-1 A246E transgene and the APP K670N/M671L transgene. Non-transgenic control animals were littermates (also referred to as PSAPP_−/− mice) generated in the breeding for PSAPP transgenic animals. Mouse genotype was determined by Polymerase Chain Reaction (PCR). Both male and female mice of 6-7 months old were used for the experiments below. All animal experiments were performed in accordance with the Tufts Animal Care and Use Committee and with national regulations and policies.
Mice were perfused transcardially with 4% paraformaldehyde and 40 μm Coronal sections were collected. Sections were sequentially incubated in 0.3% H2O2 for 10 minutes, blocking solution for 2 hrs, blocking solution containing the primary antibody (rabbit anti-beta1-42; rabbit anti-beta1-40, from Chemicon International and rat anti-CD45) for 48 hours at 4° C., and blocking solution containing biotinylated antibody or fluorescently-labeled antibody for 2 hours at room temperature. Sections were visualized in a bright field microscope or a confocal microscope, and the optical density was obtained using MetaMorph software.
After repeated imaging, brains were fixed and subjected to postmortem immunohistochemistry with amyloid beta specific antibodies β1-40 and β1-42 to evaluate the plaque load (area occupied by immunostaining of plaque) in cortex and hippocampus.
PSB0474 was systemically administered to PSAPP mice via intraperitoneal injection for 2, 4 and 6 consecutive days. In one group, prior to evaluation and following to administration for 6 consecutive days, treatment was suspended for two weeks (6+2 weeks group). Brains were then fixed and plaque load was evaluated by immunostaining with the amyloid beta specific antibodies: β1-40 and β1-42. Representative images of plaque load in cortex and hippocampus from animals that received injections of PSB0474 according to the foregoing injection schedules are shown in FIG. 5(A)-(D). […] Whereas, when administration of PSB0474 was stopped for 2 weeks following six consecutive days of treatment (denoted as the 6+2 weeks group), β1-40 staining rebounded; although to a level lower than observed in mice treated with saline as a vehicle control. FIGS. 6A and 6B depict the reduction in plaque load (%) the cortex and hippocampus, respectively, in PSAPP mice after treatment with 3-phenacyl-UDP for 2, 4, or 6 consecutive days, as assayed by staining with the β1-40 antibody. FIGS. 6C-6F depict data obtained following administration of different dosages of PSB0474.
To generate these graphs showing plaque load, mice were euthanized, brain sections cut and antibodies directed against Aβ 42 were used to disclose Aβ plaques. Images were acquired digitally and an algorithm was applied to threshold the image so that plaques were isolated from the background. The algorithm then calculated the percent area of the field of view occupied by the plaques.

P2Y4 receptor = target: T3, P2Y4 receptor (Homo sapiens, UniProt P51582); assay: Ca2+ mobilization (fluo-4) in 1321N1 astrocytoma cells expressing P2Y4 receptor; type: cell-based; conditions: sodium salt; 1321N1 cells expressing P2Y4
T3 construct: expressed in transfected cells; host or cells: 1321N1 human astrocytoma cell line
Protocol: as §1, with “fluo-4.” for “fluo-4, and results are shown in FIG. 10(A)-(K).”, “concention” for “concentration”
as §2

PSAPP mice [3] = assay: Plasma cytokine levels in PSAPP mice; type: in vivo, mouse
Protocol: as §3

PSAPP mice [4] = assay: Hippocampal long-term potentiation (LTP) recording, CA1, high-frequency stimulation; type: in vivo, mouse; conditions: acute treatment
Protocol: Hippocampal slices (350 μm thick) were prepared from 6-month-old PSAPP mice. Baseline responses were obtained every 10 seconds and Input-output (I/O) curves, paired-pulse modification and LTP were successively measured. The stimulation intensity was set to a level that gives a value of 30% of the maximum obtained. LTP were induced by high frequency stimulation (HFS, 100 pulses at 100 Hz, four times) or by theta-burst stimulation (TBS, 10 bursts at 5 Hz, repeated 10 times in 15 s intervals).
Accumulated evidence has shown that amyloid peptides naturally secreted or isolated from Alzheimer's brains impair synaptic plasticity, especially hippocampal long-term potentiation (Walsh et al., 2002). Therefore, we further performed LTP recordings in PASPP mice and investigated whether P2Y6 receptor-mediated plaque clearance affects synaptic plasticity. […] First, it was observed that LTP at the schaffer collateral synapse within the CA1 region was depressed in PSAPP mice, as compared with littermates (FIG. 8(A)).

PSAPP mice [5] = assay: Two-photon in vivo imaging of methoxyX04-labeled amyloid plaques in barrel cortex; set-up: species or system mouse; conditions: vs ACSF
Text: as §4
In this study, PSAPP mice were anesthetized using isoflurane and a thin-skull preparation was used to minimize the surface damage. Amyloid plaques were visualized with methoxyX04 labeling and blood plasma was labeled with Rhodamine dextran to facilitate re-localization of the same imaging area. Stack images were obtained using a two-photon system (Prairie Technologies) with excitation at 850 nm. The emission was detected by external photomultiplier tubes (525/70; DLCP 575; 607/45 nm).
Animals were anesthetized and immobilized in a stereotaxic frame. […]

[6] = β1-42 antibody, i.p. daily 7 days, vs vehicle

T1 sequence (Q15077 whole entry): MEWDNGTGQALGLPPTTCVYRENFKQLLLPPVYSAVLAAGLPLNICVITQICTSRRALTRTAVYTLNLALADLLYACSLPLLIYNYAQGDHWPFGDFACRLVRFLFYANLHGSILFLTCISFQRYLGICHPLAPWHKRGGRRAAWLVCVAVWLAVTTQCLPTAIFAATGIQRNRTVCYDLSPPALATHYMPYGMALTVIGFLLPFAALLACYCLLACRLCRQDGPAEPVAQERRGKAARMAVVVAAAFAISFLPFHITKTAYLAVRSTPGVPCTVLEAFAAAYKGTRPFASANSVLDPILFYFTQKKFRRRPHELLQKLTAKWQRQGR
T3 sequence (P51582 whole entry): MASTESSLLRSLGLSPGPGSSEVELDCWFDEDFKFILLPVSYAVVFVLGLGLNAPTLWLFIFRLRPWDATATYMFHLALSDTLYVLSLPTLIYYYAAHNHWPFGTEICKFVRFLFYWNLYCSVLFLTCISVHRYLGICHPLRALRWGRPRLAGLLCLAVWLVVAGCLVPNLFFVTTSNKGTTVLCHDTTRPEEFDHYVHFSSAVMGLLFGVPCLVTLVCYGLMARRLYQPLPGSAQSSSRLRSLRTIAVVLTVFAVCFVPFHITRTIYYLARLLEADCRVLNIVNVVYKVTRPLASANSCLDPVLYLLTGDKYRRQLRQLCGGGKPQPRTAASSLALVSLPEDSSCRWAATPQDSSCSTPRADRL
T2 sequence (P41231 whole entry): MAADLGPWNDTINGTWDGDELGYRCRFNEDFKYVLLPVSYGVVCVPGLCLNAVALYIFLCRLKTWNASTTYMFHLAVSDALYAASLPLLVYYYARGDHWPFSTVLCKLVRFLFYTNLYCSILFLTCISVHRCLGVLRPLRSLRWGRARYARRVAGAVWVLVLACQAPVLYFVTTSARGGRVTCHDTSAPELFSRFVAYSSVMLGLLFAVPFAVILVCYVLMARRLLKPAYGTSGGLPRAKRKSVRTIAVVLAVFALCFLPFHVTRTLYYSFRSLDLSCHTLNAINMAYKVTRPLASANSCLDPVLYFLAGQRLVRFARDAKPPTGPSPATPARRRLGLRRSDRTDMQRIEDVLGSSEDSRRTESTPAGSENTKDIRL

SMILES: S=C=Nc1cccc(NC(=S)NCCCCNC(=S)Nc2cccc(N=C=S)c2)c1 [MRS2578, reference compound]
effect of antagonist on Ca2+ signals elevated by sodium salt of compound 5 (P2Y6 receptor; P2Y6 expressing cells, antagonist added): attenuated

elevating Ca2+ levels in cells expressing P2Y6 receptors (P2Y6 receptor; sodium salt, 1321N1 cells expressing P2Y6): effective
EC50 (P2Y6 receptor; sodium salt, Ca2+ fluorescent change, 1321N1 cells expressing P2Y6 receptor): 12 nM
elevating Ca2+ levels in P2Y2 receptor expressing cells (P2Y2 receptor): not effective
elevating Ca2+ levels in P2Y4 receptor expressing cells (P2Y4 receptor): not effective
SMILES: O=c1ccn([C@@H]2O[C@H](COP(=O)(O)OP(=O)(O)O)C(O)[C@@H]2O)c(=O)n1Cc1noc2ccccc12 (stereo partly drawn) [compound 5]
freezing behavior (freezing %), contextual fear conditioning (PSAPP mice [1]; i.p. daily for 7 consecutive days, vs vehicle control): significantly improved
plasma IL-2 level (wildtype mice): reduced
plasma IL-10 level (wildtype mice): reduced
Aβ plaque load (%) in cortex (PSAPP mice [2]; [6]): substantial decrease
Aβ plaque load (%) in hippocampus (PSAPP mice [2]; [6]): substantial decrease
plasma IL-2 level (PSAPP mice [3]; 1 ug/kg i.p. daily x7): reduced
plasma IL-7 level (PSAPP mice [3]; 1 ug/kg i.p. daily x7): reduced
plasma IL-9 level (PSAPP mice [3]; 1 ug/kg i.p. daily x7): reduced
plasma IL-10 level (PSAPP mice [3]; 1 ug/kg i.p. daily x7): reduced
plasma IL-15 level (PSAPP mice [3]; 1 ug/kg i.p. daily x7): reduced
plasma MIG level (PSAPP mice [3]; 1 ug/kg i.p. daily x7): reduced
plasma MIP1α level (PSAPP mice [3]; 1 ug/kg i.p. daily x7): reduced
plasma IL-1β level (PSAPP mice [3]; 1 ug/kg i.p. daily x7, 24 hours after final injection): reduced

SMILES: O=C(Cn1c(=O)ccn(C2OC(COP(=O)(O)OP(=O)(O)O)C(O)C2O)c1=O)c1ccccc1 (stereo not drawn) [PSB0474, 3-phenacyl-UDP]
memory deficit (freezing time), contextual fear conditioning (PSAPP mice [1]; one week treatment with 1 ug/kg, vs vehicle): rescued the memory deficit
β1-40 staining (PSAPP mice [2]; 6 consecutive days then stopped for 2 weeks, level still lower than saline vehicle): rebounded
effects on the efficacy endpoint (plaque load) (PSAPP mice [2]; higher dose of 1 mg/kg, one week daily): smaller effects
immunoreactivity of β1-40 in cortex and hippocampus (PSAPP mice [2]; i.p. for 4 consecutive days): significantly decreased
immunoreactivity of β1-40 in cortex and hippocampus (PSAPP mice [2]; i.p. for 6 consecutive days): significantly decreased

SMILES: O=c1ccn([C@@H]2O[C@H](COP(=O)(O)OP(=O)(O)O)[C@@H](O)[C@H]2O)c(=O)[nH]1 [UDP, uridine diphosphate]
LTP (fEPSP %) at schaffer collateral synapse, CA1 (PSAPP mice [4]; vs ACSF): significantly increased
last 15 min potentiation, field excitatory postsynaptic potential (fEPSP) (PSAPP mice [4]; comparable to littermates): significant increase
plaque load, day 4/day 1 ratio (PSAPP mice [5]; FIG. 2D): reduces
number of plaques, day 4/day 1 ratio (PSAPP mice [5]; FIG. 2E): reduces
